According to article PMC7614683, “A small molecule PI3Kα activator for cardioprotection and neuroregeneration” (Nature, 2023):
Where two headings read alike, the source gives them in different places.

Tests used:
Assay in all cases: SelectScreen Z-LYTE kinase activity assay (SI Table 6)
Type in all cases: biochemical
[1] = biological target: protein kinases of the Z-LYTE panel (Homo sapiens, UniProt P04049, Y340D/Y341D); details: RAF1 (cRAF) Y340D Y341D, 1000 nM, [ATP] 100 μM
Outline: (§1)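 Percent effect values derive from SelectScreen Adapta, Lantha and Z-LYTE assays in which 1938 was present at 1 μM, spanning 133 protein kinases and 7 lipid kinases.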

[2] = biological target: protein kinases of the Z-LYTE panel (Homo sapiens, UniProt P06213)
Outline: as §1

[3] = biological target: protein kinases of the Z-LYTE panel (Homo sapiens, UniProt P07949)
protein kinases of the Z-LYTE panel (Homo sapiens, UniProt P07949), sequence (P07949 29-1114): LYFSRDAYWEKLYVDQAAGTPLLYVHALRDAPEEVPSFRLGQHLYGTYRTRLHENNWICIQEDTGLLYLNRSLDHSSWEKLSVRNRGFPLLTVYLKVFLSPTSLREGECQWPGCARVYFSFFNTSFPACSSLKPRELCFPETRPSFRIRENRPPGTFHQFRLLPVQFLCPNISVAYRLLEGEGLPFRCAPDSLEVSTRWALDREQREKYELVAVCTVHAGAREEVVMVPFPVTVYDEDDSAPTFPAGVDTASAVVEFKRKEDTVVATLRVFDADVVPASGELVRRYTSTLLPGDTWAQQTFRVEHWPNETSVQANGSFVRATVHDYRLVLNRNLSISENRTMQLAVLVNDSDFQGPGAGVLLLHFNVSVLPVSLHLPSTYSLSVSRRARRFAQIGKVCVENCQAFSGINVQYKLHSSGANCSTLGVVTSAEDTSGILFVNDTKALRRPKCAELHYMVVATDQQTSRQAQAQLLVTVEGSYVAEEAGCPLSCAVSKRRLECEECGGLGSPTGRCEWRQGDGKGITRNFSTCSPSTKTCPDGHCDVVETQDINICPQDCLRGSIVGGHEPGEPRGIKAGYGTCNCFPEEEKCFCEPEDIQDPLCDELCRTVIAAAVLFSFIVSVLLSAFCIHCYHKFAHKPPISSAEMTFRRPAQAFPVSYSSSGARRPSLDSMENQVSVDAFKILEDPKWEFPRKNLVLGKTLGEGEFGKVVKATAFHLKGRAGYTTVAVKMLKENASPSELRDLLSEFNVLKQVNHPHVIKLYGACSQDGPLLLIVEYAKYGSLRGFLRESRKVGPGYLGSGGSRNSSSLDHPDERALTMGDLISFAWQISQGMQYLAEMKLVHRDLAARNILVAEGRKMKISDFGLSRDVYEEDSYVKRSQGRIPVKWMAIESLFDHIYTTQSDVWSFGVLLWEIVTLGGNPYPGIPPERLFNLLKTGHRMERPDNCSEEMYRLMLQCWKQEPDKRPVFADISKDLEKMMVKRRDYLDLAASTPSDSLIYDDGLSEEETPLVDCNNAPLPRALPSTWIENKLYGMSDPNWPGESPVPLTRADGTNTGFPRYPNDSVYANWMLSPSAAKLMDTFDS
Outline: as §1

[4] = biological target: protein kinases of the Z-LYTE panel (Homo sapiens, UniProt P19784)
protein kinases of the Z-LYTE panel (Homo sapiens, UniProt P19784), sequence (P19784 whole entry): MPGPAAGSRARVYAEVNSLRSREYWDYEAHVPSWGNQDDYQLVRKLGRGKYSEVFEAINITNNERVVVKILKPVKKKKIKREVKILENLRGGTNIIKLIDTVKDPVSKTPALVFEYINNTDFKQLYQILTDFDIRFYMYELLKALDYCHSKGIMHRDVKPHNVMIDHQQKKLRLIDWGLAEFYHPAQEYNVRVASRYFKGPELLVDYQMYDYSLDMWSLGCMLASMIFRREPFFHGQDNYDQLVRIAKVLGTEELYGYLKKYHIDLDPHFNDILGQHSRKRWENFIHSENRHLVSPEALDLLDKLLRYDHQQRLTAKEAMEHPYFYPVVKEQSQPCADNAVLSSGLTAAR
Outline: as §1

[5] = biological target: protein kinases of the Z-LYTE panel (Homo sapiens, UniProt P23443)
protein kinases of the Z-LYTE panel (Homo sapiens, UniProt P23443), sequence (P23443 whole entry): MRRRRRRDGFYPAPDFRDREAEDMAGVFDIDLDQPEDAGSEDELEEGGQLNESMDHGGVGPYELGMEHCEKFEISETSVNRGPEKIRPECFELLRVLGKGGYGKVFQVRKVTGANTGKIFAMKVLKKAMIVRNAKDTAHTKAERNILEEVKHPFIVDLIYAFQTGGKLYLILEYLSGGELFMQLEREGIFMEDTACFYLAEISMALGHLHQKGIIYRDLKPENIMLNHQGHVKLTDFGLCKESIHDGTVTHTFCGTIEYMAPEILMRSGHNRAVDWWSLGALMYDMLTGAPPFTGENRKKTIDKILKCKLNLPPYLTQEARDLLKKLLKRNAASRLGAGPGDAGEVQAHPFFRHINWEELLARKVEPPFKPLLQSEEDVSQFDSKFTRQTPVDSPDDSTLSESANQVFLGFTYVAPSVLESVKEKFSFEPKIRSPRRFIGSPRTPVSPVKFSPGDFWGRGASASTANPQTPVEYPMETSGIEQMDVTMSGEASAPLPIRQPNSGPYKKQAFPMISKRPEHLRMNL
Outline: as §1

[6] = biological target: protein kinases of the Z-LYTE panel (Homo sapiens, UniProt P31751)
protein kinases of the Z-LYTE panel (Homo sapiens, UniProt P31751), sequence (P31751 whole entry): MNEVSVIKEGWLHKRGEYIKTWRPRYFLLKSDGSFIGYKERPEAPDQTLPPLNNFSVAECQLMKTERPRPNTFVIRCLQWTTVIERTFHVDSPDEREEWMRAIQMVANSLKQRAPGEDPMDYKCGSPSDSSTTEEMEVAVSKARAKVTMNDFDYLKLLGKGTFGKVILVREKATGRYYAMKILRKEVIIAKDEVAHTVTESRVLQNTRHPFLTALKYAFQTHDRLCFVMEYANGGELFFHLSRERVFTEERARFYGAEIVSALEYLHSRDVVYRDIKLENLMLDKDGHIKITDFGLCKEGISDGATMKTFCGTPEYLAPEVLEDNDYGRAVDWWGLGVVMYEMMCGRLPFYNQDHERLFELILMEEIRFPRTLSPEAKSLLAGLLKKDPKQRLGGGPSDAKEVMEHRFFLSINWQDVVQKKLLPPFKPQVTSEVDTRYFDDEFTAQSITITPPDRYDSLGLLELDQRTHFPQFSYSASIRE
Outline: as §1

[7] = biological target: protein kinases of the Z-LYTE panel (Homo sapiens, UniProt P42345)
Outline: as §1

[8] = biological target: T1, protein kinases of the Z-LYTE panel (Homo sapiens, UniProt P51813)
T1 sequence (P51813 1-675): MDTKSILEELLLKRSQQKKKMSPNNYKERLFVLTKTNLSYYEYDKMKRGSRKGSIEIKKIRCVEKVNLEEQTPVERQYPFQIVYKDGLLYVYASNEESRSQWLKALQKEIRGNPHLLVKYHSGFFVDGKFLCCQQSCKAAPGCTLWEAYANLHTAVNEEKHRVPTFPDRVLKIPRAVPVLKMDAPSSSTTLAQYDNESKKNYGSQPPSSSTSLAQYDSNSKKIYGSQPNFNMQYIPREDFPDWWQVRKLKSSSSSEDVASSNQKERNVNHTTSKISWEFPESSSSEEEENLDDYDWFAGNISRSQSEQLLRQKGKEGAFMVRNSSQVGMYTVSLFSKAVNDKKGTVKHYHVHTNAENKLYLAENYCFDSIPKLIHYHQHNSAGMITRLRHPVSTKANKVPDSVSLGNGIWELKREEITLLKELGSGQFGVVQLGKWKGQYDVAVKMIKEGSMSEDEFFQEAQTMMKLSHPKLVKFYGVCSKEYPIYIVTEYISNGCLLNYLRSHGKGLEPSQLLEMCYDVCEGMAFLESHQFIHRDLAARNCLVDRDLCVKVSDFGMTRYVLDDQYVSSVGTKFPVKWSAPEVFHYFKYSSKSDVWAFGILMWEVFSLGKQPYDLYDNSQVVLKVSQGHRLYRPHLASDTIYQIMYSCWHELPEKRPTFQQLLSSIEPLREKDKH
Outline: as §1

[9] = biological target: protein kinases of the Z-LYTE panel (Homo sapiens, UniProt Q06187)
protein kinases of the Z-LYTE panel (Homo sapiens, UniProt Q06187), sequence (Q06187 whole entry): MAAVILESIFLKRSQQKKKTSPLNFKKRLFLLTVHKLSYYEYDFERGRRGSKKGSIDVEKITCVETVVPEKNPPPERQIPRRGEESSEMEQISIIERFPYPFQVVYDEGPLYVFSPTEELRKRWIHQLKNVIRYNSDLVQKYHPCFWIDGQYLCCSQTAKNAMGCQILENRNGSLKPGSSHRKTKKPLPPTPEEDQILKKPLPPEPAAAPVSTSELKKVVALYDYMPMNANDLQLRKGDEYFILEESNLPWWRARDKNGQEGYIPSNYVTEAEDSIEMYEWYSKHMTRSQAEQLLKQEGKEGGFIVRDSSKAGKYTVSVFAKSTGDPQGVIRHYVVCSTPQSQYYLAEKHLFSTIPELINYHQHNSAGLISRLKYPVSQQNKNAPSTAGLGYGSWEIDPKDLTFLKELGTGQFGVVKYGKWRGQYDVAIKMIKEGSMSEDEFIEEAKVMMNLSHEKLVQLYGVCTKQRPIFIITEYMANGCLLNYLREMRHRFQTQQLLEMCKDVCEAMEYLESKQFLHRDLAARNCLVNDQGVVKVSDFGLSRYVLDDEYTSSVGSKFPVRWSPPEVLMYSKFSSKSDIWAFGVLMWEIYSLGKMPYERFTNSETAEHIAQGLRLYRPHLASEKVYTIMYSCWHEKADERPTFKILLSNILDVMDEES
Outline: as §1

[10] = biological target: protein kinases of the Z-LYTE panel (Homo sapiens, UniProt Q13153)
protein kinases of the Z-LYTE panel (Homo sapiens, UniProt Q13153), sequence (Q13153 whole entry): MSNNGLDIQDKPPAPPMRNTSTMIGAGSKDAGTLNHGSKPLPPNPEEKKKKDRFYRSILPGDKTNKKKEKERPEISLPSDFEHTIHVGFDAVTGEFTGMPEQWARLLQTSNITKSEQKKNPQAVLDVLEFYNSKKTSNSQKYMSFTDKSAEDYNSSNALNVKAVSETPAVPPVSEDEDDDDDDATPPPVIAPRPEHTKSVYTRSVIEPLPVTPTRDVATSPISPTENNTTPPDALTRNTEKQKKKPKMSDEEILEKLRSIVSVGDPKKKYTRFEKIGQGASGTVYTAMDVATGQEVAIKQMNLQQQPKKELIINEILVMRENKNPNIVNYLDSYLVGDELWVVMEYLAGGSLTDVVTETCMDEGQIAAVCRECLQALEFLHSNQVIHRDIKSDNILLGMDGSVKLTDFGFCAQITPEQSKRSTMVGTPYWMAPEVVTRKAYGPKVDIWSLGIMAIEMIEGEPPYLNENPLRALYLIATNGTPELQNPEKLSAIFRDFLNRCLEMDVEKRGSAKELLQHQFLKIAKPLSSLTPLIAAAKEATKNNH
Outline: as §1

protein kinases of the Z-LYTE panel (Homo sapiens, UniProt P04049, Y340D/Y341D), sequence (P04049 whole entry Y340D/Y341D): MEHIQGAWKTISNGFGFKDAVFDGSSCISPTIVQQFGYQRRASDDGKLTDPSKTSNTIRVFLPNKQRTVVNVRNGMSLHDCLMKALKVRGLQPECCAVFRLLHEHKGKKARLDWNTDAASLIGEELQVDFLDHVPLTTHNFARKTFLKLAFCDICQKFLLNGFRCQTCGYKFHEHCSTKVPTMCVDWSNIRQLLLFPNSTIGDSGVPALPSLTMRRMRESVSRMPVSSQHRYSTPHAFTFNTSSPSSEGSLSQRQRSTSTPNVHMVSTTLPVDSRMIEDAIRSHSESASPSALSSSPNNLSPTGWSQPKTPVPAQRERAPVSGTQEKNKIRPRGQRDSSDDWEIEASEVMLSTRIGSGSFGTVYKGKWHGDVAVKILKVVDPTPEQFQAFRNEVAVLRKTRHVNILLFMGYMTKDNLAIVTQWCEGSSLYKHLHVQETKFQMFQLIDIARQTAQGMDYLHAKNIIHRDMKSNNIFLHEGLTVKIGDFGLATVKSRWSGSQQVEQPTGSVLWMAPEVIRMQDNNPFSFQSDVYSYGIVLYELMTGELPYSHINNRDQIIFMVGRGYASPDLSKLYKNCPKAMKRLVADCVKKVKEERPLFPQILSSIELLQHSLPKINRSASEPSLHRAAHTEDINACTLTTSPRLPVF

**Q.** Which inhibition at 1 µM ([1]; read-out: % Inhibition Point 1) does the source give for `CCN1CCN(c2ccc(Nc3cc(Nc4cccc5c4N(C(C)=O)CC5)ccn3)cc2)CC1` [Compound 1938] here?
**A.** 5.53%

**Q.** And the inhibition at 1 µM ([1]; read-out: % Inhibition Point 2)?
**A.** 8%

**Q.** And the inhibition at 1 µM ([1]; read-out: % Inhibition mean)?
**A.** 6.59%

**Q.** And the inhibition at 1 µM ([2]; read-out: % Inhibition Point 1)?
**A.** 6.51%

**Q.** What about the inhibition at 1 µM ([2]; read-out: % Inhibition Point 2) of the same compound?
**A.** 5%

**Q.** What about the inhibition at 1 µM ([2]; read-out: % Inhibition mean) of the same compound?
**A.** 5.64%

**Q.** What about the inhibition at 1 µM ([3]; read-out: % Inhibition Point 1) of the same compound?
**A.** 15%

**Q.** And the inhibition at 1 µM ([3]; read-out: % Inhibition Point 2)?
**A.** 15%

**Q.** What about the inhibition at 1 µM ([3]; read-out: % Inhibition mean) of the same compound?
**A.** 15%

**Q.** And the inhibition at 1 µM ([4]; read-out: % Inhibition Point 1)?
**A.** 0.87%

**Q.** What about the inhibition at 1 µM ([4]; read-out: % Inhibition Point 2) of the same compound?
**A.** 2.67%

**Q.** And the inhibition at 1 µM ([4]; read-out: % Inhibition mean)?
**A.** 1.77%

**Q.** And the inhibition at 1 µM ([5]; read-out: % Inhibition Point 1)?
**A.** 2.67%

**Q.** And the inhibition at 1 µM ([5]; read-out: % Inhibition Point 2)?
**A.** -0.609%

**Q.** What about the inhibition at 1 µM ([5]; read-out: % Inhibition mean) of the same compound?
**A.** 1%

**Q.** And the inhibition at 1 µM ([6]; read-out: % Inhibition Point 1)?
**A.** 0.378%

**Q.** What about the inhibition at 1 µM ([6]; read-out: % Inhibition Point 2) of the same compound?
**A.** 0.753%

**Q.** What about the inhibition at 1 µM ([6]; read-out: % Inhibition mean) of the same compound?
**A.** 0.565%

**Q.** What about the inhibition at 1 µM ([7]; read-out: % Inhibition Point 1) of the same compound?
**A.** -3.66%

**Q.** What about the inhibition at 1 µM ([7]; read-out: % Inhibition Point 2) of the same compound?
**A.** -2.5%

**Q.** And the inhibition at 1 µM ([7]; read-out: % Inhibition mean)?
**A.** -3%

**Q.** And the inhibition at 1 µM ([8]; read-out: % Inhibition Point 1)?
**A.** 19%

**Q.** And the inhibition at 1 µM ([8]; read-out: % Inhibition Point 2)?
**A.** 25%

**Q.** And the inhibition at 1 µM ([8]; read-out: % Inhibition mean)?
**A.** 22%

**Q.** What about the inhibition at 1 µM ([9]; read-out: % Inhibition Point 1) of the same compound?
**A.** 9%

**Q.** What about the inhibition at 1 µM ([9]; read-out: % Inhibition Point 2) of the same compound?
**A.** 8%

**Q.** And the inhibition at 1 µM ([9]; read-out: % Inhibition mean)?
**A.** 9%

**Q.** And the inhibition at 1 µM ([10]; read-out: % Inhibition Point 1)?
**A.** 2.85%

**Q.** And the inhibition at 1 µM ([10]; read-out: % Inhibition Point 2)?
**A.** 5%

**Q.** And the inhibition at 1 µM ([10]; read-out: % Inhibition mean)?
**A.** 4%
